In assay [1] the test system is C57BL/6 mice subjected to desiccating stress. Kind of assay: Corneal OGD staining in murine desiccating stress model. Type of assay: in vivo, mouse. The following applies: topical bilateral 2 times per day, 5 days DS, vs vehicle (GW559090 1-30 mg/mL; Dex 0.1%). The method, then:
(§1) Female C57BL/6 mice, aged 6 to 8 weeks, were subjected to DS for 5 days (DS5) as described previously (de Paiva et al., 2006b; Niederkorn et al., 2006). Topical bilateral treatment with 1 eye drop per eye (2 μL volume) or subcutaneous injection (4 μL volume), 2 times per day, was initiated on day 1 concurrently with DS and continued through day 4. Treatment with the compound of formula I or dexamethasone phosphate 0.1% was compared to correspondingly treated vehicle controls. Mice were randomized to receive one of the test articles. Control mice were kept in a non-stressed (NS) environment maintained at 50-75% relative humidity without exposure to airflow or scopolamine and were not treated with test or control article. Treatment effects were assessed on corneal staining with Oregon Green Dextran (OGD); expression of inflammatory markers in ocular surface tissues by real time PCR; cell population analysis in draining cervical lymph nodes by FACS analysis; conjunctival T cell infiltration by immunohistochemistry.
On the morning of the 5th day, mice received one s.c. dose of scopolamine. Two hours later corneal staining was assessed using Oregon Green Dextran (OGD-488), which is a conjugated fluorescent dye of a 70 kDa molecular size (Invitrogen-Molecular Probes) as previously described (de Paiva et al., 2006b). The procedure consisted of instillation of 0.5 μL of OGD on the cornea using a glass capillary pipette, 1 minute before euthanasia. Mice were euthanized by inhalation of isoflurane gas followed by cervical dislocation. Eyes were then rinsed with 2 mL of BSS. Excess liquid was carefully blotted from the ocular surface with filter papers without touching the cornea. Digital pictures of both eyes were taken under 470 nm excitation and 488 nm emission wave lengths using a Nikon SMZ-1500 stereo microscope, with an exposure time of 2 seconds. Both eyes from each animal were evaluated; the right eye always first followed by the left eye. The mean intensity in the central cornea was evaluated from digital images using NIS Elements (version 3.0) by placing a fixed region of interest (a 2-mm diameter circle) on the central cornea. The mean intensity of the fluorescence was read by the software and stored in a database (Excel, Microsoft). This fluorescence measurement in the central ring was done independently by 2 masked observers, for each mouse eye. By the conclusion of the experiment, results were averaged from both observers using all data collected during all study weeks (Excel, Microsoft). Results are presented as geometric mean±95% confidence interval of gray levels.
Due to skewed distribution of OGD data, the analysis was done on the log 10 scale to make the data more normally distributed. Log 10 OGD data was averaged across two observers and the left and right eyes. The mixed effects ANOVA model included treatment group as a fixed effect and week as a random effect. 95% and 99% confidence intervals were constructed for the disease (5 day DS vs untreated group kept in separate vivarium) and compound treatment effects (treatment vs vehicle). As these comparisons were all pre-planned (comparing each treatment to its vehicle group), no adjustment was made for multiplicity. […] T cell density was calculated for each section and averaged across sections for each animal. […]

For assay [2], the system named is cells of draining cervical lymph nodes. Put plainly: Flow cytometry of draining cervical lymph nodes, desiccating stress 1 day. Type of assay: in vivo, mouse. The following applies: 1 day DS. The method, then:
as §1
Cervical draining lymph nodes (CLN) were surgically excised, placed in a round culture plate with ˜8 mL of complete RPMI media and smashed between two frosted slides.
Single-cell suspensions of CLN from C57BL/6 mice, treated under DS conditions for 1 day, were prepared, centrifuged and sequentially filtered, as previously described (de Paiva et al., 2009a). Subsequently 1.0 mL of ACT solution was added for 30 seconds followed by 2.0 mL of complete RPMI. The cells were once again centrifuged and the supernatant aspirated. Cells were then re-suspended in 2.0 mL of complete RPMI and prepared for counting. Ten μL of Trypan Blue were used for counting and the cells were divided in tubes at 1×10^6 cells/mL. Subsequently, the cells were incubated on ice in 20 μL unconjugated anti-mouse CD16/CD32 (BD Pharmingen, San Diego, Calif.) followed by 80 μL of directly conjugated primary antibody or isotype. Finally the samples were washed with 1 mL PBS/1% FBS, centrifuged and re-suspend in 0.3 mL PBS/1% FBS containing 1:1000 of PI. The samples were stored at 4° C. until the analysis was performed with an A BD LSRII Benchtop cytometer. The data was analysed using BD Diva Software (BD Pharmingen) and FlowJo (TreeStar Inc).
Due to skewed distribution of OGD data, the analysis was done on the log 10 scale to make the data more normally distributed. Log 10 OGD data was averaged across two observers and the left and right eyes. The mixed effects ANOVA model included treatment group as a fixed effect and week as a random effect. 95% and 99% confidence intervals were constructed for the disease (5 day DS vs untreated group kept in separate vivarium) and compound treatment effects (treatment vs vehicle). As these comparisons were all pre-planned (comparing each treatment to its vehicle group), no adjustment was made for multiplicity. Log 10 scale treatment effect estimates and confidence limits were converted back to the original OGD scale, thus representing the estimate for the ratio of group geometric means and their confidence limits. For gene expression analysis, an unpaired T test was performed to compare drug and vehicle treatment. For flow cytometry analysis, a 2-way ANOVA with fixed treatment and random experiment effects was employed to test the treatment differences. The analysis was followed by Dunnett's multiple comparison procedure to compare each of the treatment groups with the vehicle group. T cell density was calculated for each section and averaged across sections for each animal. As the distribution of average cell density data was non-normal, it was analyzed by using non-parametric methods (Kruskal-Wallis procedure, followed by Dunn's multiple comparisons technique).
The draining CLN are an integral part of the immune cycle in DED (Pflugfelder et al., 2008; Schaumburg et al., 2011). […]

A further assay has as its system dry eye patients. The following applies: delivered topically; cited from earlier work.
For assay [3], the system named is multiple sclerosis and Crohn's disease. The following applies: in vivo; cited from earlier work.
Setting [4] is: topical treatment, vs vehicle (GW559090 30 mg/mL, 60 μg per eye; Dex 0.1%), listed as dexamethasone.

Take `C[C@@H]1C[C@H]2[C@@H]3CCC4=CC(=O)C=C[C@]4(C)[C@@]3(F)[C@@H](O)C[C@]2(C)[C@@]1(O)C(=O)COP(=O)(O)O` [Dex, Dexamethasone phosphate, reference compound]: the “OGD intensity score (corneal staining / corneal barrier disruption)” value is reported as “significantly improved” in assay [1] and “decreased” in assay [1] (listed as dexamethasone). Further, in assay [2], the “CD4+ and CD8+ T cells in draining lymph nodes” value is recorded as “nor did treatment with the compound of formula I or dexamethasone decrease the number of T cells”. Moreover, the “CD11c+ dendritic cells in draining cervical lymph nodes” value in assay [2] (setting [4]) was “no significant effect”; in assay [2] (topical treatment, vs vehicle (GW559090 30 mg/mL, 60 μg per eye; Dex 0.1%), listed as dexamethasone phosphate) it was “Neither systemic treatment with the compound of formula I nor topical treatment with dexamethasone phosphate produced the same effect”. Besides, in assay [2] (setting [4]), the “CD11c+/MHC II+ dendritic cells in draining cervical lymph nodes” value was “no significant effect”.

In the case of `CS(=O)(=O)c1cccc(C[C@H](NC(=O)c2c(Cl)cc3c(c2Cl)CCN(C(=O)c2ccc4ccoc4c2)C3)C(=O)O)c1` [Lifitegrast, (2S)-2-[[2-(1-benzofuran-6-carbonyl)-5,7-dichloro-3,4-dihydro-1H-isoquinoline-6-carbonyl]amino]-3-(3-methylsulfonylphenyl)propanoic acid], in the assay on dry eye patients, the Corneal staining result is “reduce” and the Symptoms entry is on record as “improve”.

For the molecule “Natalizumab: an antibody directed against the integrin α4 subunit”, the “Inflammation and clinical outcomes” value in assay [3] was “profoundly inhibit inflammation and improve clinical outcomes”.
